Experimental data from patent US20240174718A1, “RYANODINE RECEPTOR INHIBITOR COMPOUNDS AND METHODS RELATING THERETO” (Vanderbilt University, priority 2022, published 2024).

Key:
[1] = tested on: Casq2-/- mice; assay: Catecholamine-induced arrhythmia challenge (ECG) in CPVT mice; type: in vivo, mouse
Protocol: Triple crossover study design for in vivo arrhythmia challenge. N=22 Casq2^−/− mice were randomly assigned to vehicle (DMSO), 3 mg/kg, or 30 mg/kg ent-B1 and crossed over twice with one-week washouts between treatment. Mice underwent catecholamine-induced arrhythmia challenge with isoproterenol 15 min after intraperitoneal drug administration. […] Ectopic beats are denoted by p (PVC), c (couplet), and vt (ventricular tachycardia). Normal sinus beats are not marked. […] Individual data are shown with median and interquartile range. Bonferroni-adjusted P values by pairwise Wilcoxon matched-pairs signed rank test. *P=0.020 vs Veh; #P=0.039 vs Veh. […] Bonferroni-adjusted P values by pairwise Wilcoxon matched- pairs signed rank test. #P=0.0058 vs Vehicle.
ECG recording—Nine male and thirteen female Casq2^−/− mice 17-20 weeks old were randomly assigned to a three-by-three crossover design such that every treatment sequence was sampled. Mice were pretreated with intraperitoneal injection of vehicle (DMSO), 3 mg/kg ent-B1, or 30 mg/kg of ent-B1 fifteen minutes prior to baseline ECG recording. Mice were then injected with 3 mg/kg isoproterenol intraperitoneally. Recordings were continued for 5 minutes or for 1 minute after cessation of ventricular ectopy. A washout period of one week was used between treatments. The Vanderbilt Institutional Animal Care and Use Committee (IACUC) approved the use of mice in these studies (protocol #M1900057-01). Animals had free access to food and water.
ECG analysis—LabChart (AD Instruments, Inc) was used to analyze ECG recordings by a reviewer blinded to treatment dose. ECG records were examined to quantify premature ventricular contractions (PVCs), duration of ventricular tachycardia, heart rate, and baseline ECG parameters (PR, QRS and QT interval). Arrhythmias were scored on a five point ordinal scale based on the number of PVCs with the following criteria: 1) zero point for no PVCs; 2) one point for isolated PVCs; 3) two points for bigeminy (alternating sinus beats and PVCs); 4) three points for couplets (two consecutive PVCs); and 5) four points for three or more consecutive PVCs (ventricular tachycardia).
(§1) All tests were two-sided and a p-value cutoff of <0.05 was used to denote significance. Concentration-response curves for RyR2 single-channel, [^3H]ryanodine ligand binding and intact myocyte assays were generated using non-linear regression with the equation: Y=Bottom+(Top−Bottom)/(1+(IC50/X)^HillSlope) using least square regression, no weighting, and no constrains on the parameters. The distributions of relative RyR2 open probability at each [ent-B1] were normalized by taking the log of each sample. For the 3×3 crossover in vivo ECG study, a pre-test was conducted using a mixed model with fixed effects of sequence and period; mice were treated as random effects.
Casq2^−/− mice are a validated model for preclinical testing of antiarrhythmic drugs for CPVT. […] The same doses of ent-B1 were tested in a triple-crossover design with each mouse receiving vehicle (DMSO), 3 mg/kg, and 30 mg/kg with a one-week washout period between experiments. […] ECGs were analyzed in blinded fashion and ventricular arrhythmias quantified. […] We also scored the mice based on the ventricular arrhythmia severity, i.e., premature ventricular complexes (PVCs)<bigeminy<couplets<ventricular tachycardia. […]

[2] = molecular target: T1, RyR2 (Mus musculus, UniProt E9Q401); assay: Intracellular Ca2+ measurements / spontaneous Ca2+ release in intact Casq2-/- cardiomyocytes; type: cell-based
T1 construct: spontaneous openings of intracellular RyR2 Ca^2+ release channels; endogenous in cells; host or cells: ventricular cardiomyocytes isolated from Casq2-/- mice (saponin-permeabilized in A1, intact in A7)
T1 sequence (E9Q401 whole entry): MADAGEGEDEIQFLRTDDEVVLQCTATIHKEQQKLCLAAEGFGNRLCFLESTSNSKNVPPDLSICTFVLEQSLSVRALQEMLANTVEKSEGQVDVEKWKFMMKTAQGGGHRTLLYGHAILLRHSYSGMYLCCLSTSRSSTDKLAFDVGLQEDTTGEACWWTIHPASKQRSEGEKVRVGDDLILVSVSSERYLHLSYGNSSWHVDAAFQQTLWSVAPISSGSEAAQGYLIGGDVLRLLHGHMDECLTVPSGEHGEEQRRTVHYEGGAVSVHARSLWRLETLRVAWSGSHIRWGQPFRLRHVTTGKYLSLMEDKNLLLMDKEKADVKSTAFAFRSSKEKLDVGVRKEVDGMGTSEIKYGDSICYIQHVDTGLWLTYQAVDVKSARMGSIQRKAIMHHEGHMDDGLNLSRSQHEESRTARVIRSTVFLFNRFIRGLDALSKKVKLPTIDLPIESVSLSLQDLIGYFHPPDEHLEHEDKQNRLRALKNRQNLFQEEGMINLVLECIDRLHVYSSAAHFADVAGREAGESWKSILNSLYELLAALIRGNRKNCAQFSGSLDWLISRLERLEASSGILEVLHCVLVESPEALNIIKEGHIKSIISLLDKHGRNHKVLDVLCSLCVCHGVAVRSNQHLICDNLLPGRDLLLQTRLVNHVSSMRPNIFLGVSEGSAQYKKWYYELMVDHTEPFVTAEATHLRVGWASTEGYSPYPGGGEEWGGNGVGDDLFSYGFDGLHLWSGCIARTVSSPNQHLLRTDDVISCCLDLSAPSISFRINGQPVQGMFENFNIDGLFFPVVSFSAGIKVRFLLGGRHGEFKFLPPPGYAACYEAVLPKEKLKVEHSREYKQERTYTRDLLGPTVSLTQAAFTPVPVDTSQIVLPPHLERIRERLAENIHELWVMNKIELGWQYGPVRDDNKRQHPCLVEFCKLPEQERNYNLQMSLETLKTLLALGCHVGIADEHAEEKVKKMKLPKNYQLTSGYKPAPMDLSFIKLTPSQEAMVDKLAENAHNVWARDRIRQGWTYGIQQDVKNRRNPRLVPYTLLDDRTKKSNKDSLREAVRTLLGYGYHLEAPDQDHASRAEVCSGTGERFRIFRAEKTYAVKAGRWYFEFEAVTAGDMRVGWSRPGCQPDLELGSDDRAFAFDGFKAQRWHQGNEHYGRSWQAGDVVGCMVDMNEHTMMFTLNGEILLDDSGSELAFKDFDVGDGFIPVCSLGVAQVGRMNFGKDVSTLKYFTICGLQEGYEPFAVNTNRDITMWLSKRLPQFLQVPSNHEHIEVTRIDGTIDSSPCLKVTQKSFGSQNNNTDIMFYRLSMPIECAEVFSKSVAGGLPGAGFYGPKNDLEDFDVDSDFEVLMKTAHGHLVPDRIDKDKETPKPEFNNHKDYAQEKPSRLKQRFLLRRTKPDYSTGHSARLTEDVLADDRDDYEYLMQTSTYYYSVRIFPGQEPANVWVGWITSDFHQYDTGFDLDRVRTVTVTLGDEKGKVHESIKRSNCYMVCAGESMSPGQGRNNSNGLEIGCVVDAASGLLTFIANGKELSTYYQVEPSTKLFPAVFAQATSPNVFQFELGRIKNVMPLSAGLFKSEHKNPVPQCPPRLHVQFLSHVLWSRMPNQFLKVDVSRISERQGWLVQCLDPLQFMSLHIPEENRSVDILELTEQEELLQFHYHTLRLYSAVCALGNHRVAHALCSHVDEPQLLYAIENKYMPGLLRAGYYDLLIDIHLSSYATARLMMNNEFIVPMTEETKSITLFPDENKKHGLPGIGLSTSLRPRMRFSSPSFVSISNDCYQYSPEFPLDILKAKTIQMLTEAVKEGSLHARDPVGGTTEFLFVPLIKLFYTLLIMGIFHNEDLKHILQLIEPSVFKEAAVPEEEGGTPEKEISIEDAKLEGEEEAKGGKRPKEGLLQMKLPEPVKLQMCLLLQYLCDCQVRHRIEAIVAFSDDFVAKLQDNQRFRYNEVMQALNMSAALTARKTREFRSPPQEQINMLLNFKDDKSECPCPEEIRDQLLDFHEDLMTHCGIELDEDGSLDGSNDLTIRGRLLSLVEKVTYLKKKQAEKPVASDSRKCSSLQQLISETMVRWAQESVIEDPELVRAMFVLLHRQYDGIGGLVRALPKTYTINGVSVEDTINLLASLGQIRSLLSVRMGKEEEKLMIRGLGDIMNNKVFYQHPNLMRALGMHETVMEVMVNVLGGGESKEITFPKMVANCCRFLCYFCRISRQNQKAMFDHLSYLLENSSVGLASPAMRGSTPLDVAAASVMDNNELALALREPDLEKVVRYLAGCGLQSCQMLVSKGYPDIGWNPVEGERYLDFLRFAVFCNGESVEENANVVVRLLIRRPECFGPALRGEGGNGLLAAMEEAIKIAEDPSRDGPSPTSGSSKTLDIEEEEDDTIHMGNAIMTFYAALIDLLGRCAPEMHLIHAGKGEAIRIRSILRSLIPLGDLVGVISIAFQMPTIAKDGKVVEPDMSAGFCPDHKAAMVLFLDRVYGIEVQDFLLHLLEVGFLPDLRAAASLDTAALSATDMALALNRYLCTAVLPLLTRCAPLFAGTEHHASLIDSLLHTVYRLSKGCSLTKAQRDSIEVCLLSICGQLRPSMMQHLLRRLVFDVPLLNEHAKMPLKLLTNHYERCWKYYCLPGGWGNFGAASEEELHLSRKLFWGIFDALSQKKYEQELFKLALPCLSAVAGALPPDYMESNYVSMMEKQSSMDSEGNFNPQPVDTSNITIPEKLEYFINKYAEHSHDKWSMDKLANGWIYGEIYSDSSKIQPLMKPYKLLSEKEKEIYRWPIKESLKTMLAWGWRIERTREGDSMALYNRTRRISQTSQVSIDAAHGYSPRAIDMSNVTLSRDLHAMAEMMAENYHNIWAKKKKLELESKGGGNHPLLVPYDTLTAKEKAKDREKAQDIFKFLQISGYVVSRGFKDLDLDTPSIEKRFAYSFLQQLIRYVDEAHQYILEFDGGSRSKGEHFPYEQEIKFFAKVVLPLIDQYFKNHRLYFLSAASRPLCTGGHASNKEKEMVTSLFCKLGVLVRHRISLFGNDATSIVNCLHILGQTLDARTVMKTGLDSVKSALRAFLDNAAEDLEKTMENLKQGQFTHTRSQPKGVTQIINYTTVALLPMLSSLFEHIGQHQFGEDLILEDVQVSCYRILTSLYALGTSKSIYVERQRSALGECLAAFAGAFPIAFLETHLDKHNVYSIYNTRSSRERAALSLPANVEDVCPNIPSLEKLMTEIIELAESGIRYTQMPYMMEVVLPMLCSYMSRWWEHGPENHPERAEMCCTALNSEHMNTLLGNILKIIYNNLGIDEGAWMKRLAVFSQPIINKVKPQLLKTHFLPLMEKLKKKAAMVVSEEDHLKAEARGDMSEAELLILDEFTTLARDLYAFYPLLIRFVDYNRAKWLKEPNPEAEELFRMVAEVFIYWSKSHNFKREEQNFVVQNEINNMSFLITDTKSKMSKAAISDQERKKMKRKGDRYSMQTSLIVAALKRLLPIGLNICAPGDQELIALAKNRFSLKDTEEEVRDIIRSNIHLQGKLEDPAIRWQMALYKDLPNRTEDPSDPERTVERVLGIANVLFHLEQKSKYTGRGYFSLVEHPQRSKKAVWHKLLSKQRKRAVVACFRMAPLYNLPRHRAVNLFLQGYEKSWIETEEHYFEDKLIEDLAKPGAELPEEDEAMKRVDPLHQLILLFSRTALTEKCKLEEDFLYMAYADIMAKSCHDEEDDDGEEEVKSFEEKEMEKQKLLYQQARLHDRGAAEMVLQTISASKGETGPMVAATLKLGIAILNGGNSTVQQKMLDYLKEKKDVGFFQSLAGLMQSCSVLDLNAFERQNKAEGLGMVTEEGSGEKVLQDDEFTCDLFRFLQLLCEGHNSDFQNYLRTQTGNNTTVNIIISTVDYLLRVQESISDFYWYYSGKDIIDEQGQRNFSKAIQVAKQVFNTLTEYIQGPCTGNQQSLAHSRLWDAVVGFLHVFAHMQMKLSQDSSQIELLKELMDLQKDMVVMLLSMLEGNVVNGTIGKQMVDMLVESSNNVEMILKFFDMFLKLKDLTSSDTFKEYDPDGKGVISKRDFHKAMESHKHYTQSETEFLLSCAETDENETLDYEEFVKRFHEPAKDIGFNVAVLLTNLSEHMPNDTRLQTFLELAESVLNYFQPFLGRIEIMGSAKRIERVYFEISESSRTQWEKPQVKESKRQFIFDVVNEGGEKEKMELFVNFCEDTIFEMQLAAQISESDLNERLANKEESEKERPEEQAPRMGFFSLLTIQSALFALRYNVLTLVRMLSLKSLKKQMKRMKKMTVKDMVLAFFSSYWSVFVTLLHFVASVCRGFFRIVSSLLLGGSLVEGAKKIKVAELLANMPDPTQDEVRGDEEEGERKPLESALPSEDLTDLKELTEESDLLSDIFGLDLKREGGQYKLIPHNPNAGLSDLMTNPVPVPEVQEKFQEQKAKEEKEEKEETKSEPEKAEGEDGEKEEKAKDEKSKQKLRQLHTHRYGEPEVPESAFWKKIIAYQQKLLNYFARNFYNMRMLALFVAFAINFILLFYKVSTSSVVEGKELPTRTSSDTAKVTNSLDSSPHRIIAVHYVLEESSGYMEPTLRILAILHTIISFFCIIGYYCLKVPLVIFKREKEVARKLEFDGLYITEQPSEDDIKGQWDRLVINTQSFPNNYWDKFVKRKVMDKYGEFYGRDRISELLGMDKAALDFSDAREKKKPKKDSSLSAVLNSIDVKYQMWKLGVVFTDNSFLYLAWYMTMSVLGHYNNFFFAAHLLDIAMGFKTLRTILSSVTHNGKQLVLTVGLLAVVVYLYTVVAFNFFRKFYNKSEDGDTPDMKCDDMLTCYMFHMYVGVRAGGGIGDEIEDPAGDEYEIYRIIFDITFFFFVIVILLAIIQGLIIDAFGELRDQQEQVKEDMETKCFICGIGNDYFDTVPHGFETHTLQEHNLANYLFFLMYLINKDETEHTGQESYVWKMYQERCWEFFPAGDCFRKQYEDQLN
Protocol: FIGS. 4(A-G) show intracellular Ca2+ measurements from intact Casq2−/− cardiomyocytes. […] For panels A-D and G, N=26, 30, 30, 30, and 31 cells for DMSO, 0.03, 0.1, 1, and 3 μM ent-B1, respectively. For panels E and F, N=14, 27, 29, 29, and 30 cells for DMSO, 0.03, 0.1, 1, and 3 μM ent-B1, respectively. Data are shown as mean±SD with individual data points.
FIGS. 10(A-B) show the spontaneous Ca^2+ release in intact mouse Casq2^−/− cardiomyocytes. […] Cells were field stimulated at 3 Hz for 20 s before recording. Blue marks indicate final stimulations of pacing train, arrows SCR events. Recording duration was 40 s before 10 mM caffeine application to assess total SR Ca^2+ content. […] Data are shown as mean±SD.
Intracellular Ca^2+ measurements in intact cardiomyocytes—Ventricular cardiomyocytes were isolated from two male 10-week old and one female 13-week old Casq2^−/− mouse as described previously (Knollmann et al., 2006). Cardiomyocytes were pre-incubated for 2 hours with DMSO or ent-B1. Myocytes were then loaded with Fura-2 acetoxymethyl ester (Fura-2 AM; Invitrogen) as described previously (Batiste et al., 2019). Briefly, isolated single ventricular myocytes were incubated with 2 μM Fura-2 AM for 7 minutes to load the indicator in the cytosol. Myocytes were then washed twice for 10 minutes with normal Tyrode (NT) solution containing 250 μM probenecid (all solutions also contained either vehicle [DMSO] or ent-B1). The composition of NT used for Fura-2 loading and washing was (in mM): 134 NaCl, 5.4 KCl, 1.2 CaCl2, 1 MgCl2, 10 glucose, and 10 HEPES, pH adjusted to 7.4 with NaOH. After Fura-2 loading, all experiments were conducted in NT solution containing 1 μM isoproterenol and 2 mM CaCl2. Fura2-loaded myocytes were electrically paced at 3 Hz field stimulation and Ca transients were recorded for 20 seconds followed by no electrical stimulation for 40 seconds to record spontaneous Ca release events. After that, myocytes were perfused with 10 mM caffeine in NT solution for 5 seconds to estimate total SR Ca content. Fura-2 was measured using a dual-beam excitation fluorescence photometry setup (IonOptix Corp.) and analyzed using commercially available data analysis software (IonWizard, IonOptix, Milton, MA). All experiments were conducted at room temperature.
as §1

[3] = 3 μM (only the highest concentration tested)

With `CCCCC[C@@H]1OC(=O)[C@@H](C)N(C)C(=O)[C@H](CCCCC)OC(=O)[C@@H](C)N(C)C(=O)[C@H](CCCCC)OC(=O)[C@@H](C)N(C)C1=O` (single isomer, unassigned) [ent-B1] the “reduction in ventricular ectopy burden” value ([1]; 30 mg/kg i.p., Casq2-/- mice, isoproterenol challenge) was 70%, the “incidence of VT” value ([1]; 3 and 30 mg/kg i.p. vs vehicle) was “dose-dependent reduction” and the “number of total ectopic beats” value ([1]; 3 and 30 mg/kg i.p. vs vehicle) was “dose-dependent reduction”. The “suppression of ventricular tachycardia” value ([1]; only at the higher dose tested, 30 mg/kg) was “statistically significant suppression”, the arrhythmia risk scores ([1]; ordinal scale 0-4, vs vehicle) was “lower” and the “Ca2+ decay kinetics (indicator of SERCA2 SR uptake rate)” value [2] was “no effect”. For the same compound, the “time-to-peak of Ca2+ transients” value [2] was “no effect”, the “amplitude of the caffeine-induced Ca2+ transient” value [2, 3] was “reduced” and the “amplitude of the systolic Ca2+ transient” value [2, 3] was “reduced”. For the same compound, the “diastolic Ca2+ levels” value [2, 3] was “reduced”.
